In patent publication US5137905A, “Heterocyclic acetylenic amines having central nervous system activity” (The Upjohn Company, priority 1991, dated 1992) one finds Ki and ED50 data, which are given here for 23 compounds.

Assay [1] has as its target CNS cholinergic receptor. Particulars: tritiated quinuclidine benzylate (QNB); read-out: CNS Cholinergic Receptor Binding Assays K1 QNB.
The subject of assay [2] is oxotremorine-induced body tremor. Nature of the assay: Oxotremorine antagonist assay (body tremor). Particulars: Mus musculus, ip; read-out: Oxot. Antagonist Tremor (ED50). It is filed as in vivo, mice. As for the experimental part: Oxotremorine antagonist assays were performed on groups of six mice weighing 18-22 g. Each was dosed intraperitoneally with the test compound prepared in 0.25% methylcellulose and were placed in individual cages. Twenty minutes later the mice were injected subcutaneously with 0.5 mg/kg of oxotremorine dissolved in saline. Ten minutes later the mice were scored for body tremor. Doses of the compound under study began at 100 mg/kg and were decreased at a 0.5 log interval until no responders were obtained.

For assay [3], the target named is CNS cholinergic receptor. Nature of the assay: CNS cholinergic receptor binding, oxotremorine M ligand. Particulars: tritiated oxotremorine M; read-out: CNS Cholinergic Receptor Binding Assays K1 Oxotremorine.
The test system of a further assay is HCl-induced writhing. Nature of the assay: HCl writhing protection (analgesic activity). It is filed as in vivo, CF1 mice. Particulars: Mus musculus, sc; ED50; s.c. in CF1 mice, 30 min before i.p. 0.15% HCl; read-out: CNS Id (ED50 mg/kg) HCl Writh. Protect. On the procedure:
For determination of analgesic activity, the test compound was injected subcutaneously into a group of four CF1 mice. Thirty minutes later the mice were injected i.p. with 0.15% HCl, 10 ml./kg. Mice were then placed in plastic boxes and observed for fifteen minutes to record the number of animals failing to writhe.
(In general: An intraperitoneal irritant provokes the stretching counted in writhing tests.)

Like-named read-outs stand apart in the source and are kept apart here. Where only a bound is given, the exact number is not on record here.

For the compound `CC(=O)N1CCC[C@@H]1C#CCN(C)C` [Compound 51C, (R)-1-Acetyl-2-[3-(dimethylamino)-1-propynyl]pyrrolidine], the Ki was > 10000 nM at CNS cholinergic receptor [1] and 130 nM on CNS cholinergic receptor [3]. For the same compound, the results for the ED50 (in assay [2]; with HCl-induced writhing) were > 100 mg/kg and > 50 mg/kg, respectively.

Turning to `CN(C)C(=O)N1CCC[C@H]1C#CCN1CCCC1` [Compound 51F, (S)-N,N-Dimethyl 2-[3-(1-pyrrolidinyl)-1-propynyl]-1-pyrrolidinecarboxamide], the Ki on CNS cholinergic receptor [1] turned out to be 2000 nM; at CNS cholinergic receptor [3] it was 460 nM. Also, the ED50 in assay [2] is > 100 mg/kg; with HCl-induced writhing, > 50 mg/kg.

As to `CNC(=O)N1CCC[C@@H]1C#CCN1CCCC1` [Compound 51G, (R)-N-Methyl 2-[3-(1-pyrrolidinyl)-1-propynyl]-1-pyrrolidinecarboxamide], the Ki on CNS cholinergic receptor [1] is > 10000 nM; on CNS cholinergic receptor [3] it was 240 nM. For the same compound, the results for the ED50 (in assay [2]; in the assay on HCl-induced writhing) were > 100 mg/kg and > 50 mg/kg, respectively.

Turning to `CC1CN(C(=O)OC(C)(C)C)C(=O)N1CC#CCN1CCCC1` (centres unmarked) [Compound 18, t-Butyl 4-methyl-2-oxo-3-[4-(1-pyrrolidinyl)-2-butynyl]-1-imidazolidinecarboxylate], the Ki at CNS cholinergic receptor [1] stood at 820 nM; at CNS cholinergic receptor [3], 180 nM. For the same compound, the figures for the ED50 (in assay [2]; in the assay on HCl-induced writhing) were > 30 mg/kg and 25 mg/kg, respectively.

Take `CN(C)CC#C[C@H]1CCCN1C(=O)OC(C)(C)C` [Compound 49C, (R)-t-Butyl 2-[3-(dimethylamino)-1-propynyl]-1-pyrrolidinecarboxylate]: the Ki was > 10000 nM at CNS cholinergic receptor [1] and 44 nM on CNS cholinergic receptor [3]. The ED50 in assay [2] was > 100 mg/kg; in the assay on HCl-induced writhing, > 50 mg/kg.

With `CN(C)CC#CCN1CCN(c2ccccc2)C1=O` [Compound 21, 1-[4-(Dimethylamino)-2-butynyl]-3-phenyl-2-imidazolidinone], the Ki on CNS cholinergic receptor [1] is > 10000 nM; on CNS cholinergic receptor [3], 840 nM. The ED50 in assay [2] was > 100 mg/kg; in the assay on HCl-induced writhing, > 50 mg/kg.

Consider `CC1(C)CNC(=O)N1CC#CCN1CCCC1` [Compound 16, 5,5-Dimethyl-1-[4-(1-pyrrolidinyl)-2-butynyl]-2-imidazolidinone], for which the Ki is 1000 nM on CNS cholinergic receptor [1] and 290 nM at CNS cholinergic receptor [3]. Also, the ED50 in assay [2] was > 100 mg/kg; with HCl-induced writhing, 25 mg/kg.

With `CN1CCN(CC#CCN2CCCC2)C1=O` [Compound 1, 1-Methyl-3-[4-(1-pyrrolidinyl)-2-butynyl]-2-imidazolidinone], the Ki was found to be 180 nM at CNS cholinergic receptor [1] and 2.7 nM at CNS cholinergic receptor [3]. The ED50 in assay [2] is > 3 mg/kg; in the assay on HCl-induced writhing, 0.2 mg/kg.

With `CC(C)(C)OC(=O)N1CCC[C@@H]1C#CCN1CCCC1` [Compound 49A, (R)-t-Butyl 2-[3-(1-pyrrolidinyl)-1-propynyl]-1-pyrrolidine-carboxylate], the results for the Ki at CNS cholinergic receptor [1] and at CNS cholinergic receptor [3] were 430 nM and 20 nM, respectively. Besides, the ED50 in assay [2] is 100 mg/kg; in the assay with HCl-induced writhing, 13 mg/kg.

As for `CC1CN(CC#CCN2CCCC2)C(=O)N1C(=O)OC(C)(C)C` (centres unmarked) [Compound 17, t-Butyl 5-methyl-2-oxo-3-[4-(1-pyrrolidinyl)-2-butynyl]-1-imidazolidinecarboxylate], the Ki at CNS cholinergic receptor [1] was determined as 2700 nM; at CNS cholinergic receptor [3], 810 nM. In addition, the ED50 in assay [2] was > 100 mg/kg; with HCl-induced writhing, > 25 mg/kg.

As for `CC(=O)N1CCC[C@H]1C#CCN(C)C` [Compound 51D, (S)-1-Acetyl-2-[3-(dimethylamino)-1-propynyl]pyrrolidine], the Ki at CNS cholinergic receptor [1] is > 10000 nM; on CNS cholinergic receptor [3], 10000 nM. Besides, the ED50 was > 100 mg/kg in assay [2] and > 50 mg/kg in the assay on HCl-induced writhing.

Turning to `N#CN1CCC[C@@H]1C#CCN1CCCC1` [Compound 51I, (R)-2-[3-(1-pyrrolidinyl)-1-propynyl]-1-pyrrolidinecarbonitrile], the values for the Ki at CNS cholinergic receptor [1] and at CNS cholinergic receptor [3] were > 10000 nM and 310 nM, respectively. Moreover, the figures for the ED50 (in assay [2]; in the assay with HCl-induced writhing) were > 30 mg/kg and 25 mg/kg, respectively.

For `CN(C)CC#CCN1CCN(C(=O)OC(C)(C)C)C1=O` [Compound 11, t-Butyl 3-[4-(dimethylamino)-2-butynyl]-2-oxo-1-imidazolidinecarboxylate], the values for the Ki on CNS cholinergic receptor [1] and at CNS cholinergic receptor [3] were 4700 nM and 160 nM, respectively. Moreover, the results for the ED50 (in assay [2]; in the assay on HCl-induced writhing) were > 100 mg/kg and > 50 mg/kg, respectively.

For `COC(=O)N1CCC[C@@H]1C#CCN1CCCC1` [Compound 51J, (R)-Methyl 2-[3-(1-pyrrolidinyl)-1-propynyl]-1-pyrrolidinecarboxylate], the Ki at CNS cholinergic receptor [1] worked out at 460 nM; on CNS cholinergic receptor [3] it was 57 nM. In addition, the figures for the ED50 (in assay [2]; with HCl-induced writhing) were > 100 mg/kg and 11 mg/kg, respectively.

As to `CN(C)CC#C[C@@H]1CCCN1` [Compound 50D, (S)-N,N-dimethyl-3-(2-pyrrolidinyl)-2-propyn-1-amine], the Ki on CNS cholinergic receptor [1] and on CNS cholinergic receptor [3] was > 10000 nM throughout. In addition, the ED50 was > 100 mg/kg in assay [2] and > 50 mg/kg in the assay with HCl-induced writhing.

Consider `CC1(C)CN(CC#CCN2CCCC2)C(=O)N1` [Compound 12, 4,4-Dimethyl-1-[4-(1-pyrrolidinyl)-2-butynyl]-2-imidazolidinone], for which the ED50 was > 100 mg/kg in assay [2] and > 50 mg/kg in the assay with HCl-induced writhing. For the same compound, the Ki on CNS cholinergic receptor [3] is 820 nM.

In the case of `C#CCN1CCN(CC#CCN2CCCC2)C1=O` [Compound 14, 1-(2-Propynyl)-3-[4-(1-pyrrolidinyl)-2-butynyl]-2-imidazolidinone], the Ki came to 2300 nM at CNS cholinergic receptor [1] and 200 nM on CNS cholinergic receptor [3]. For the same compound, the ED50 is > 30 mg/kg in assay [2] and > 25 mg/kg in the assay with HCl-induced writhing.

In the case of `CC(C)(C)OC(=O)N1CCN(CC#CCN2CCCC2)C1=O` [Compound 8, t-Butyl 2-oxo-3-[4-(1-pyrrolidinyl)-2-butynyl]-1-imidazolidinecarboxylate], the Ki came out at 2200 nM on CNS cholinergic receptor [1] and 130 nM on CNS cholinergic receptor [3]. The ED50 in assay [2] is > 100 mg/kg; in the assay with HCl-induced writhing it was 25 mg/kg.

In the case of `O=C1NCCN1CC#CCN1CCCC1` [Compound 9, 1-[4-(1-Pyrrolidinyl)-2-butynyl]-2-imidazolidinone], the Ki at CNS cholinergic receptor [1] is 800 nM; on CNS cholinergic receptor [3], 13 nM. For the same compound, the ED50 in assay [2] was > 3 mg/kg; in the assay on HCl-induced writhing it was 2.2 mg/kg.

Consider `CC1CN(CC#CCN2CCCC2)C(=O)N1` (centres unmarked) [Compound 15, 4-Methyl-1-[4-(1-pyrrolidinyl)-2-butynyl]-2-imidazolidinone], for which the Ki on CNS cholinergic receptor [1] is 1000 nM; on CNS cholinergic receptor [3] it was 140 nM. For the same compound, the ED50 in assay [2] is > 10 mg/kg; with HCl-induced writhing, > 13 mg/kg.

For `CCOC(=O)N1CCC[C@@H]1C#CCN1CCCC1` [Compound 51L, (R)-Ethyl 2-[3-(1-pyrrolidinyl)-1-propynyl]-1-pyrrolidinecarboxylate], the Ki at CNS cholinergic receptor [1] was 760 nM; on CNS cholinergic receptor [3], 50 nM. For the same compound, the values for the ED50 (in assay [2]; with HCl-induced writhing) were > 100 mg/kg and > 50 mg/kg, respectively.

As for `CN1C(=O)N(CC#CCN2CCCC2)CC1(C)C` [Compound 13, 3,4,4-Trimethyl-1-[4-(1-pyrrolidinyl)-2-butynyl]-2-imidazolidinone], the ED50 in assay [2] is > 100 mg/kg; with HCl-induced writhing it was 12.5 mg/kg. The Ki at CNS cholinergic receptor [3] is > 10000 nM.

With `CC(=O)N1CCC[C@@H]1C#CCN1CCCC1` [Compound 51A, (R)-1-Acetyl-2-[3-(1-pyrrolidinyl)-1-propynyl]pyrrolidine], the Ki on CNS cholinergic receptor [1] was 120 nM. For the same compound, the ED50 in assay [2] was 3 mg/kg; in the assay with HCl-induced writhing, > 50 mg/kg.
